Among the data in patent US8962596B2 (Array BioPharma Inc., priority 2010, dated 2015) are IC50 values, retold here.

Common to all, as to assay type: biochemical
For one assay, the target named is T1, Human Tyk2 kinase domain (Homo sapiens, UniProt P29597).
T1 construct: comprising amino acids 886 to 1187 with 10 additional histidine residues; 10xHis (histidine tag) (C, cleaved yes); made in house
T1 sequence (P29597 886-1187): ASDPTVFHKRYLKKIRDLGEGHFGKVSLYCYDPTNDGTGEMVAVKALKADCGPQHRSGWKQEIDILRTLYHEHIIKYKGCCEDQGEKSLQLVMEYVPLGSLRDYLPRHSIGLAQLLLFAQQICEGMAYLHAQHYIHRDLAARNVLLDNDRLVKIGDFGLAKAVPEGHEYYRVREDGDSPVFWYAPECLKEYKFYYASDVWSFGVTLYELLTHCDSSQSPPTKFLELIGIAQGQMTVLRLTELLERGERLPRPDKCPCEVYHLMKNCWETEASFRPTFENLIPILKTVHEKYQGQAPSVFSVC
Put plainly: Tyk2 Inhibition Assay (Omnia kinase fluorescence peptide substrate assay). The settings on record: averaged IC50 ranges; assay of Example A; 10 μM (Km app) or 1 mM ATP, 2 nM Tyk2. The method, boiled down: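 2 nM His-tag-cleaved kinase domain (aa 886–1187) with 8 μM Omnia Y12 peptide, 10 μM (Km app) or 1 mM ATP, pH 7.4 HEPES/10 mM MgCl2, 2% DMSO. Fluorescence (ex 360/em 485 nm) every 50 s for 45 min; IC50 from 4-parameter fit of POC, top dose 10 μM.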

The next assay concerns the target T2, JAK1 (Homo sapiens, UniProt P23458).
T2 construct: purchased Invitrogen Corporation, Carlsbad, Calif; PV4775
As to the kind of experiment: JAK1 Inhibition Assay (Omnia kinase fluorescence peptide substrate assay). The conditions noted are these: averaged IC50 ranges; assay of Example B; 40 μM (Km app) or 1 mM ATP, 15 nM JAK1.

The target in a further assay is T3, JAK2 (Homo sapiens, UniProt O60674).
T3 construct: purchased Invitrogen Corporation, Carlsbad, Calif; PV4288
As to the kind of experiment: JAK2 Inhibition Assay (Omnia kinase fluorescence peptide substrate assay). The settings on record: averaged IC50 ranges; assay of Example C; 25 μM (Km app) or 1 mM ATP, 5 nM JAK2. The method, boiled down:
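5 nM JAK2 phosphorylated 10 μM Omnia Y7 peptide with ATP at 25 μM (Km app) or 1 mM, in 25 mM HEPES pH 7.4, 10 mM MgCl2, 0.01% Triton X-100, 1 mM DTT, 2% DMSO. Fluorescence (360/485 nm) was read every 50 s for 45 min. 10-point 3-fold series from 10 μM; POC versus uninhibited and background controls, 4-parameter logistic IC50.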

For a further assay, the target named is T4, JAK3 (Homo sapiens, UniProt P52333).
T4 construct: purchased Invitrogen Corporation, Carlsbad, Calif; PV4080
T4 sequence (P52333 1-1124): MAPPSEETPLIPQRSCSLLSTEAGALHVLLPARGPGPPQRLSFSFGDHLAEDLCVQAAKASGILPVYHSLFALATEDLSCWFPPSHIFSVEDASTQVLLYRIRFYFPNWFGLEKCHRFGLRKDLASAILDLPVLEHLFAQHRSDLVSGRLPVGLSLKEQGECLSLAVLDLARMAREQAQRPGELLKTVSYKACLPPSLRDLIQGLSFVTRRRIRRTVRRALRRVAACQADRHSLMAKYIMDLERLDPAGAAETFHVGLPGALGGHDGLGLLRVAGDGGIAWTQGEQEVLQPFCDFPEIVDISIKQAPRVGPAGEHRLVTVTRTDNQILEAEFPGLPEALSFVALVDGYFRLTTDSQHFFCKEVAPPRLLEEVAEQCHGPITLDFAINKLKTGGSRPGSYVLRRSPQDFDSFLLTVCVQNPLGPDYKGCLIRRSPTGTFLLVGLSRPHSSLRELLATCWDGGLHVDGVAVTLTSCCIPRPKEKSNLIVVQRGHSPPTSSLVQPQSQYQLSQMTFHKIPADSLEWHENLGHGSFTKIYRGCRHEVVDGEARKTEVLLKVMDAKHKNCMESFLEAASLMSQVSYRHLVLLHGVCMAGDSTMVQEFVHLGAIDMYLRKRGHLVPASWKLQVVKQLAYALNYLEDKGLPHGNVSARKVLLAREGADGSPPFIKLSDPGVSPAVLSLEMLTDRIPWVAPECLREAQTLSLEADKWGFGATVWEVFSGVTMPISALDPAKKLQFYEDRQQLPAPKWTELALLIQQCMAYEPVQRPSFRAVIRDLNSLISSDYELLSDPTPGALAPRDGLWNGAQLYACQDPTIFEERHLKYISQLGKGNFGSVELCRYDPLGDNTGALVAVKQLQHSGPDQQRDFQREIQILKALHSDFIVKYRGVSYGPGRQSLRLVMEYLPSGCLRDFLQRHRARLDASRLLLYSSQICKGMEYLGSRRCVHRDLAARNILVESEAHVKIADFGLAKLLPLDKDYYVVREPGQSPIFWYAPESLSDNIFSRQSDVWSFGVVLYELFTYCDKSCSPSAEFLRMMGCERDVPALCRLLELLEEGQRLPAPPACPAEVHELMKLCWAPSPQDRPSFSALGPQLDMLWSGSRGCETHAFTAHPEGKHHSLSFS
As to the kind of experiment: JAK3 Inhibition Assay (Omnia kinase fluorescence peptide substrate assay). The settings on record: averaged IC50 ranges; assay of Example D; 10 μM (Km app) or 1 mM ATP, 2.5 nM JAK3. The method in brief: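 Kinase at 2.5 nM with 10 µM Omnia Y7 peptide and 10 µM (Km app) or 1 mM ATP in 25 mM HEPES pH 7.4, 10 mM MgCl2, 1 mM DTT, 0.01% Triton X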

T2 sequence (P23458 whole entry): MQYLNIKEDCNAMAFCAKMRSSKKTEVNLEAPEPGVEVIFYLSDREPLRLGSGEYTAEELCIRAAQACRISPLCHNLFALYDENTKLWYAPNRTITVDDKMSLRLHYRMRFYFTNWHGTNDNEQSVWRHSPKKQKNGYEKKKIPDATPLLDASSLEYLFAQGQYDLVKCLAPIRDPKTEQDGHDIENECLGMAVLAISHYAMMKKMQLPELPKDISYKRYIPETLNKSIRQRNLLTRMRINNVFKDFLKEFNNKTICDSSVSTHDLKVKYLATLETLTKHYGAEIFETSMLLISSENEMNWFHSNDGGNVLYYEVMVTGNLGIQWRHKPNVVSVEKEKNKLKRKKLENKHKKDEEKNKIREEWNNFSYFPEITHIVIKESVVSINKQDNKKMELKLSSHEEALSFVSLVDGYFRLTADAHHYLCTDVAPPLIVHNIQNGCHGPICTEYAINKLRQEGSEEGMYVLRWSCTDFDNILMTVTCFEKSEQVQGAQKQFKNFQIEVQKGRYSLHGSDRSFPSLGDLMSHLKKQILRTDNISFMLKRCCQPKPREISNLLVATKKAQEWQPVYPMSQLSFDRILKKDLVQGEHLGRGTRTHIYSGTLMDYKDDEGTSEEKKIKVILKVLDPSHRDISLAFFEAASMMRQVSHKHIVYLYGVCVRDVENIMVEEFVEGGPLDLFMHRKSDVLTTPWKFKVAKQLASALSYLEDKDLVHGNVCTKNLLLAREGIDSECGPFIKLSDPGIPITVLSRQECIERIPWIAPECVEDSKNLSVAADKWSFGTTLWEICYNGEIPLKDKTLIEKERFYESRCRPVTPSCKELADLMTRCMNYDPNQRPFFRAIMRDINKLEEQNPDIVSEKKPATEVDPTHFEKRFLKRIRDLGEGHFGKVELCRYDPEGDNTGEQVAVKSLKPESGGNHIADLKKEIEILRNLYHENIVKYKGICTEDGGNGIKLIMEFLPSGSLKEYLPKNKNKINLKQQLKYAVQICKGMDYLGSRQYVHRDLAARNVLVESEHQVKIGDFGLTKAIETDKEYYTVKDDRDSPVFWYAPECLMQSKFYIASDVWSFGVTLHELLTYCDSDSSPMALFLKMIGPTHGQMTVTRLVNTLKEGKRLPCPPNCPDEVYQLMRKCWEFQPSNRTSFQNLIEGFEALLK
T3 sequence (O60674 whole entry): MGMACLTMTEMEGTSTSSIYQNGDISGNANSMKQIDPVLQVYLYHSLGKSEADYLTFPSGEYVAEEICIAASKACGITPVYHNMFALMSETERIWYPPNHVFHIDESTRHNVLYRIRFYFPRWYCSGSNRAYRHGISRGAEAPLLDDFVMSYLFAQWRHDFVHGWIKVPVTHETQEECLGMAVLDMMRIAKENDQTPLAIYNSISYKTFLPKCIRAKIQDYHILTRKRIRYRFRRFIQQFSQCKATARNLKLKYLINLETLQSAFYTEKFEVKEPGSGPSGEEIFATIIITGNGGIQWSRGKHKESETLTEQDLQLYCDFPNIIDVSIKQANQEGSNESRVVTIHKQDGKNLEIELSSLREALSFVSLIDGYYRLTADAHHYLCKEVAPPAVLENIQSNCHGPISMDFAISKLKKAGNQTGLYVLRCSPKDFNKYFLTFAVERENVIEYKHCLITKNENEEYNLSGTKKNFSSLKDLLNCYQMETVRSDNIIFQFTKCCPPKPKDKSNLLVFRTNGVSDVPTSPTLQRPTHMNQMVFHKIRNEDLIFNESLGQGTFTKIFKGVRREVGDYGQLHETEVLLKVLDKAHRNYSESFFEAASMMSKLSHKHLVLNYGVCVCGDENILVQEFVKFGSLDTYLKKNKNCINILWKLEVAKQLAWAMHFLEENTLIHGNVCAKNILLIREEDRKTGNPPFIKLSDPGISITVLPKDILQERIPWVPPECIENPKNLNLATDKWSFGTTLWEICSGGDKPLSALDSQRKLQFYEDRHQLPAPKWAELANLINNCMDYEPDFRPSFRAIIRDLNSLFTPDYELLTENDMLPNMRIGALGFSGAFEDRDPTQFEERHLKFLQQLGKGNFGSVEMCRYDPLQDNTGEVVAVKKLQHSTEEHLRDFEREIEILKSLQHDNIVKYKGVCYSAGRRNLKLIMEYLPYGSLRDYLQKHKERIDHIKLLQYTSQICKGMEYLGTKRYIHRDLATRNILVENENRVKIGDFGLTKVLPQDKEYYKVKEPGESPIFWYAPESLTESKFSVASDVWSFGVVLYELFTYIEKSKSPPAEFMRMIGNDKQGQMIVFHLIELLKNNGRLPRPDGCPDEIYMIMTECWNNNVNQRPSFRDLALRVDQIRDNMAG

In the case of `N#CCC1(n2cc(-c3nc(-c4cnn(C5COC5)c4)cc4nccn34)cn2)CN(CC(F)F)C1` [Example 156, 2-(1-(2,2-difluoroethyl)-3-(4-(7-(1-(oxetan-3-yl)-1H-pyrazol-4-yl)imidazo[1,2-c]pyrimidin-5-yl)-1H-pyrazol-1-yl)azetidin-3-yl)acetonitrile], the IC50 against Human Tyk2 kinase domain was below 10 nM; on JAK1, 100 to 1000 nM; on JAK2, 10 to 100 nM; against JAK3, above 1000 nM.

Regarding `N#CCC1(n2cc(-c3nc(-c4cnn(C5COC5)c4)cc4nccn34)cn2)CN(CC(F)(F)C(F)(F)F)C1` [Example 157, 2-(3-(4-(7-(1-(oxetan-3-yl)-1H-pyrazol-4-yl)imidazo[1,2-c]pyrimidin-5-yl)-1H-pyrazol-1-yl)-1-(2,2,3,3,3-pentafluoropropyl)azetidin-3-yl)acetonitrile], the IC50 is 10 to 100 nM on Human Tyk2 kinase domain, 100 to 1000 nM against JAK1, 10 to 100 nM at JAK2 and above 1000 nM at JAK3.

`COc1ccc(-c2cc3nccn3c(-c3cnn(C4(CC#N)CN(S(=O)(=O)C(F)(F)F)C4)c3)n2)cc1` [Example 158, 2-(3-(4-(7-(4-methoxyphenyl)imidazo[1,2-c]pyrimidin-5-yl)-1H-pyrazol-1-yl)-1-(trifluoromethylsulfonyl)azetidin-3-yl)acetonitrile]: the IC50 against Human Tyk2 kinase domain is below 10 nM; on JAK1, below 10 nM; at JAK2 it was 10 to 100 nM; against JAK3 it was 100 to 1000 nM.

On to `COc1ccc(-c2cc3nccn3c(-c3cnn(C4(CC#N)CN(S(=O)(=O)C5CC5)C4)c3)n2)cc1` [Example 159, 2-(1-(cyclopropylsulfonyl)-3-(4-(7-(4-methoxyphenyl)imidazo[1,2-c]pyrimidin-5-yl)-1H-pyrazol-1-yl)azetidin-3-yl)acetonitrile], for which the IC50 was below 10 nM against Human Tyk2 kinase domain, 10 to 100 nM against JAK1, 10 to 100 nM on JAK2 and above 1000 nM at JAK3.

Consider `Cn1cc(-c2cc3nccn3c(-c3cnn(C4(CC#N)CC5(CCC5)C4)c3)n2)cn1` [Example 160, 2-(2-(4-(7-(1-methyl-1H-pyrazol-4-yl)imidazo[1,2-c]pyrimidin-5-yl)-1H-pyrazol-1-yl)spiro[3.3]heptan-2-yl)acetonitrile], for which the IC50 at Human Tyk2 kinase domain is below 10 nM; against JAK1, 100 to 1000 nM; at JAK2 it was 10 to 100 nM; against JAK3 it was 100 to 1000 nM.

`Cn1cc(-c2cc3nccn3c(-c3cnn(C4(CC#N)CC5(CCCC5)C4)c3)n2)cn1` [Example 161, 2-(2-(4-(7-(1-methyl-1H-pyrazol-4-yl)imidazo[1,2-c]pyrimidin-5-yl)-1H-pyrazol-1-yl)spiro[3.4]octan-2-yl)acetonitrile]: the IC50 at Human Tyk2 kinase domain is below 10 nM; on JAK1, 100 to 1000 nM; on JAK2, 10 to 100 nM; on JAK3, above 1000 nM.

For the molecule `N#CCC1(n2cc(-c3nc(-c4cnn(C5COC5)c4)cc4nccn34)cn2)CC2(CCC2)C1` [Example 162, 2-(2-(4-(7-(1-(oxetan-3-yl)-1H-pyrazol-4-yl)imidazo[1,2-c]pyrimidin-5-yl)-1H-pyrazol-1-yl)spiro[3.3]heptan-2-yl)acetonitrile], the IC50 is below 10 nM against Human Tyk2 kinase domain, 100 to 1000 nM at JAK1, 10 to 100 nM against JAK2 and 100 to 1000 nM at JAK3.

The IC50 is the midpoint of a concentration-inhibition curve.
